Laboratory results taken from ChEMBL document CHEMBL1158553, “Synthesis and biological activity of cyclotetrapeptide analogues of the natural HDAC inhibitor FR235222” (Bioorg Med Chem, 2010).
One block for each molecule: values may come before it.

Tests used:
[1] = target: Histone deacetylase 1 (Homo sapiens) (UniProt Q13547); conditions: HEK293; 50 uM
[2] = target: Histone deacetylase 2 (Homo sapiens) (UniProt Q92769); conditions: HEK293; 50 uM
[3] = target: Histone deacetylase 3 (Homo sapiens) (UniProt O15379); conditions: HEK293; 50 uM
Sequence of Histone deacetylase 3 (Homo sapiens) (O15379 whole entry): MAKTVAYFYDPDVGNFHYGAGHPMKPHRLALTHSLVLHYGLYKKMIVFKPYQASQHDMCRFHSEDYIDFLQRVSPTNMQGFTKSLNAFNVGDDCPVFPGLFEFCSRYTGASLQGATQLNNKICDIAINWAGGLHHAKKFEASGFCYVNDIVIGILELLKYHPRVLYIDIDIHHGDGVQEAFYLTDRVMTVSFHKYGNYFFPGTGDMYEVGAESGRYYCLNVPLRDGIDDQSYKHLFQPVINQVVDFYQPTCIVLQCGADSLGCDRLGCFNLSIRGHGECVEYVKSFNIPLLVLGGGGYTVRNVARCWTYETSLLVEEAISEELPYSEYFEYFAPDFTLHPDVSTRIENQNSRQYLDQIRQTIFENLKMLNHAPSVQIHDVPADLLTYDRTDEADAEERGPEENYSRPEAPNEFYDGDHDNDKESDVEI

[4] = target: Histone deacetylase 4 (Homo sapiens) (UniProt P56524); conditions: 50 uM
Sequence of Histone deacetylase 4 (Homo sapiens) (P56524 whole entry): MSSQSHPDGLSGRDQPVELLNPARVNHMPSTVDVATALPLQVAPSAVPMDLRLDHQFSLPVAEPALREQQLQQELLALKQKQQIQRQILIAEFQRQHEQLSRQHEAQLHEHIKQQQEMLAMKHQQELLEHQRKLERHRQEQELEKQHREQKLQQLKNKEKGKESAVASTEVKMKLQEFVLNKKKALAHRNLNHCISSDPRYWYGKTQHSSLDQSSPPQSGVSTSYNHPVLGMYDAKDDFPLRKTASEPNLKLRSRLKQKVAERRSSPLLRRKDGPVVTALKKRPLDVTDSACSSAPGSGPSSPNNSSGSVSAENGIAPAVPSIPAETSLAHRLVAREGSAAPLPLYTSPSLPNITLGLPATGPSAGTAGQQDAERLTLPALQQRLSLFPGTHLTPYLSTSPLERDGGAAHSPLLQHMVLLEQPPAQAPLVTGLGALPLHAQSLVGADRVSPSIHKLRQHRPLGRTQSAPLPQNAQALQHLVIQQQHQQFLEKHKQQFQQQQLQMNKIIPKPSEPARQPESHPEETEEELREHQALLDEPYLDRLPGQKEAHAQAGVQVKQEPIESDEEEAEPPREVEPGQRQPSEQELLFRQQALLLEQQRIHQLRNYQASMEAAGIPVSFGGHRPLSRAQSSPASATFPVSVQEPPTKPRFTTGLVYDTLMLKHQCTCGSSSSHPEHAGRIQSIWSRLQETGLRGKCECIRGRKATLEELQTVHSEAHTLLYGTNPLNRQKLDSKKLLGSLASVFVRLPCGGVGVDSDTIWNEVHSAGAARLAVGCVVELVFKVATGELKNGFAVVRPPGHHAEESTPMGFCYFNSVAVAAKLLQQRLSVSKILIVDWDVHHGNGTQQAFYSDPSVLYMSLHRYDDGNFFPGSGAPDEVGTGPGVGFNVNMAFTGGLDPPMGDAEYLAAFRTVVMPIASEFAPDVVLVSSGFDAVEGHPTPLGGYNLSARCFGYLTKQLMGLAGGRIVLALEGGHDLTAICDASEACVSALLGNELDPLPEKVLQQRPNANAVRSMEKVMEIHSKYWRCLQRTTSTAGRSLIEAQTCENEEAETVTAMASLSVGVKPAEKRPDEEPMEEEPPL

[5] = target: Histone deacetylase (Homo sapiens) (UniProt Q13547+O15379+Q9UBN7+Q92769+Q9UQL6+Q8WUI4+Q9BY41+Q96DB2+P56524+Q9UKV0+Q969S8); conditions: HeLa, 100 uM
[6] = target: Histone deacetylase 2 (Homo sapiens) (UniProt Q92769); conditions: HEK293; 100 uM
[7] = target: Histone deacetylase 3 (Homo sapiens) (UniProt O15379); conditions: HEK293; 100 uM
[8] = target: T1, Histone deacetylase 7 (Homo sapiens) (UniProt Q8WUI4); conditions: 100 uM
T1 sequence (whole entry): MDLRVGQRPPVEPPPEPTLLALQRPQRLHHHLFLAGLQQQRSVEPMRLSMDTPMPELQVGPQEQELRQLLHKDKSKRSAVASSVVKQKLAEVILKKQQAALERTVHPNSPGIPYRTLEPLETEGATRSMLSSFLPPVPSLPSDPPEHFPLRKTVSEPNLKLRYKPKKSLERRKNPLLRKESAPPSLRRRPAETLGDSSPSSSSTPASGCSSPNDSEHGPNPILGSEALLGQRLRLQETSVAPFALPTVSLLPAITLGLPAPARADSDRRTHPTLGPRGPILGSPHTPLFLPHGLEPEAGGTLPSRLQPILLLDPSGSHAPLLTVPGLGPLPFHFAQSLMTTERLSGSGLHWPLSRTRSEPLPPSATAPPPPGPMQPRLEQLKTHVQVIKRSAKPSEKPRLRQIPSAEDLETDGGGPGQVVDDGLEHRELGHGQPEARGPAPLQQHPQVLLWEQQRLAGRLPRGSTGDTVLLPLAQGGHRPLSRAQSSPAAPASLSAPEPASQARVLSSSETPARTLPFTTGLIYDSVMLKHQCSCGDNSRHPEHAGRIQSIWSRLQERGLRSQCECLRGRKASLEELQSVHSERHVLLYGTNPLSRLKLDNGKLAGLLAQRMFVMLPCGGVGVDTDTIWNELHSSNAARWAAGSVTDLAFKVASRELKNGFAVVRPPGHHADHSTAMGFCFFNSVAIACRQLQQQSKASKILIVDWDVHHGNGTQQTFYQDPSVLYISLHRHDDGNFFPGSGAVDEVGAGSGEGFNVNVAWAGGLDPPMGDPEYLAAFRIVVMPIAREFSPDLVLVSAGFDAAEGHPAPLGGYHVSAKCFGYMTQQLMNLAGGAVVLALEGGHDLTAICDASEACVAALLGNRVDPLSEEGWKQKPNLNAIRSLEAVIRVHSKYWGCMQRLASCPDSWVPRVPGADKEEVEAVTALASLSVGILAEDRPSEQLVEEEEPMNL

[9] = target: Histone deacetylase 4 (Homo sapiens) (UniProt P56524); conditions: 100 uM

Sequence of Histone deacetylase 2 (Homo sapiens) (Q92769 whole entry): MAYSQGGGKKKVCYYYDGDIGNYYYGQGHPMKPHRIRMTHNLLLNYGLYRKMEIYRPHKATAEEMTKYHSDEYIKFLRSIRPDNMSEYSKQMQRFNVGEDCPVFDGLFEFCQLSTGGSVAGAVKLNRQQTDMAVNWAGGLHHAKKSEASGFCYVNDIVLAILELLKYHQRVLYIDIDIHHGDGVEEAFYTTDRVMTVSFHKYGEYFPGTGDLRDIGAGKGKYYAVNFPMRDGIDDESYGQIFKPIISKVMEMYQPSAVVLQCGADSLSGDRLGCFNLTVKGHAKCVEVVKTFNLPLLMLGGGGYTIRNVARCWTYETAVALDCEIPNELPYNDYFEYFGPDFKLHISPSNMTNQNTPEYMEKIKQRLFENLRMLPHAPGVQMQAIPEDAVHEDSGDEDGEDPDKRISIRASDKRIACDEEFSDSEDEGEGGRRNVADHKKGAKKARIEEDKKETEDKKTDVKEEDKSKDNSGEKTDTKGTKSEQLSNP
Sequence of Histone deacetylase 1 (Homo sapiens) (Q13547 whole entry): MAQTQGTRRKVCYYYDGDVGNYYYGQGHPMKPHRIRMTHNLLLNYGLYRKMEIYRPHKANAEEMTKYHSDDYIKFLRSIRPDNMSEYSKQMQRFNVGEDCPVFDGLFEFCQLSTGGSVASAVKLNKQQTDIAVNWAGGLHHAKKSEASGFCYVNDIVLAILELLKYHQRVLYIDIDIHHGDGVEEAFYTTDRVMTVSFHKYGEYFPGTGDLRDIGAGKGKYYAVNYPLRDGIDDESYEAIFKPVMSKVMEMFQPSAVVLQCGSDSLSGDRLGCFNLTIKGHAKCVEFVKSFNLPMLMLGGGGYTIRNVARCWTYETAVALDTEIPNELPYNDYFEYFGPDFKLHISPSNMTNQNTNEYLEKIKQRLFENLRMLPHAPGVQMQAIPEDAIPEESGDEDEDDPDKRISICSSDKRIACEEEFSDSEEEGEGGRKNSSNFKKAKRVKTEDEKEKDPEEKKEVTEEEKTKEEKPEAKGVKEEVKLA

inhibition [4]: 37%
Compound: O=C(O)CC/C=C\C[C@@H]1NC(=O)[C@H]2CCCN2C(=O)[C@H](Cc2ccccc2)NC(=O)[C@H](Cc2c[nH]c3ccccc23)NC1=O

inhibition [5]: 30%
Compound: O=C(O)CC/C=C\C[C@@H]1NC(=O)[C@H](Cc2c[nH]c3ccccc23)NC(=O)[C@H]2CCCN2C(=O)[C@H](Cc2c[nH]c3ccccc23)NC1=O

More lines, now with the values behind:

Compound: O=C(CCCCC[C@@H]1NC(=O)[C@H]2CCCN2C(=O)[C@H](Cc2ccccc2)NC(=O)[C@H](Cc2c[nH]c3ccccc23)NC1=O)NO
inhibition [1]: 42%
inhibition [2]: 30%
inhibition [3]: 14.7%

Compound: O=C(CCCCC[C@@H]1NC(=O)[C@H](Cc2c[nH]c3ccccc23)NC(=O)[C@H]2CCCN2C(=O)[C@H](Cc2c[nH]c3ccccc23)NC1=O)NO
inhibition [6]: 34%
inhibition [7]: 23.5%
inhibition [8]: 48.5%

Compound: C[C@H](O)C(=O)CCCCC[C@@H]1NC(=O)[C@H]2CCCN2C(=O)[C@H](Cc2ccccc2)NC(=O)[C@H](Cc2c[nH]c3ccccc23)NC1=O
inhibition [9]: 50%
